From ChEMBL document CHEMBL3880401, “Novel aminopyridine derivatives as mGluR5 antagonists” (2006)
pIC50: −log10 of the molar value.

Target: Metabotropic glutamate receptor 5 (Rattus norvegicus, UniProt P31424)
Test: Displacement of [3H]-MPEP from mGlur5 from Sprague-Dawley rat brain membranes incubated for 1 hr by liquid scintillation spectrometry
Format: tissue-based, Membrane

Metabotropic glutamate receptor 5, sequence (P31424 whole entry): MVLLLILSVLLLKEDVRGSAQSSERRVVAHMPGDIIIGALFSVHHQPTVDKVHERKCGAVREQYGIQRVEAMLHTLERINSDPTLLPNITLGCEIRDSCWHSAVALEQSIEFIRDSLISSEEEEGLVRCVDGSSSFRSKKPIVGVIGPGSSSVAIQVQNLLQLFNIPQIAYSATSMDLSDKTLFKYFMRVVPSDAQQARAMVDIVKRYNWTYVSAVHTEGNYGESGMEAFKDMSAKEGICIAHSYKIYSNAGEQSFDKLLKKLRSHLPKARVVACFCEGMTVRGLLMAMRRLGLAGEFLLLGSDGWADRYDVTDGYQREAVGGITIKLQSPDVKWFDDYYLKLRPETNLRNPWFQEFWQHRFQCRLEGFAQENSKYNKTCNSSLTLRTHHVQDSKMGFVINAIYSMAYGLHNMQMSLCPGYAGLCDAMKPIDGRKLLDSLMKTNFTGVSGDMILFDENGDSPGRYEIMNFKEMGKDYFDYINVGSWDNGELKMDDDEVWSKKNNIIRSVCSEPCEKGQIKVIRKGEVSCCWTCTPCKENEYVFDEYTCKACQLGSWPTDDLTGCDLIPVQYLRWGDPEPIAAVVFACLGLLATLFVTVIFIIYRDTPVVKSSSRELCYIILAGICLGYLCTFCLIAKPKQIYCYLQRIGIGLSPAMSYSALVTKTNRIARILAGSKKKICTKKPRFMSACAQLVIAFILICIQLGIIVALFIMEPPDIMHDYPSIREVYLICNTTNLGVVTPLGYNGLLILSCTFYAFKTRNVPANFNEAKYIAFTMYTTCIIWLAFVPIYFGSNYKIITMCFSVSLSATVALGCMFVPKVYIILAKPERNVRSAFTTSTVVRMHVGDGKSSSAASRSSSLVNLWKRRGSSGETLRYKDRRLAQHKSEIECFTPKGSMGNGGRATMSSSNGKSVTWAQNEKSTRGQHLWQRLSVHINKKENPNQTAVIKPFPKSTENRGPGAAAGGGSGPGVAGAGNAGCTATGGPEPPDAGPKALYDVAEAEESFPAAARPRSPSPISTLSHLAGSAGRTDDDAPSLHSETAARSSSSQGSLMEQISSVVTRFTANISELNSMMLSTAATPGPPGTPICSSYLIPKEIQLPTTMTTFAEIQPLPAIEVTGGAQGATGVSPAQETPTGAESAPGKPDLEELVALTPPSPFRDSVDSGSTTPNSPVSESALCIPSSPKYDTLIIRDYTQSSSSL

SMILES | pIC50
Cc1ccc(N)c(C#Cc2cccc(F)c2)n1 | > 7.52
Cc1ccc(N)c(C#Cc2cncc(Cl)c2)n1 | > 7.52
Cc1ccc(N)c(C#Cc2cc(F)cc(F)c2)n1 | > 7.52

Next, values leading:

pIC50 | SMILES
> 7.52 | Cc1cc(C)c(N)c(C#Cc2cccc(Cl)c2)n1
> 7.52 | Cc1cc(C)c(N)c(C#Cc2cccc(F)c2)n1
